From PubChem BioAssay AID464 (The Scripps Research Institute Molecular Screening Center, 2006)
Activity calls are given as the source filed them.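 Rule for the calls: active = Compounds that kill half the cells at a concentration of 5 micromolar or below, from the fitted or estimated CC50; inactive = CC50 above 5 micromolar.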

Test system: Jurkat E6.1 viability, ATP luminescence, 48 h
Test: viability loss in Jurkat T cells – cell-based, ATP luminescence, 48 h, 60K MLSMR, cytotoxicity control, dose response (AID 464)

Row | Structure (SMILES) | CC50
1 | COC(=O)c1ccc(Oc2cc(C)nc(-n3nc(C)cc3C)n2)cc1 | 0.112 µM
2 | N#CC(C#N)=c1ccc2c(c1)NC1(CCCCC1)N=2 | 8.08 µM (inactive)
3 | CSc1nc2nc3c(c(=O)n2[nH]1)CN(Cc1ccccc1)CC3 | > 40 µM (inactive)
4 | Cc1cccc(Cn2c(=O)n(CCCC(=O)NCc3ccco3)c(=O)c3ccccc32)c1 | 5.14 µM (inactive)
5 | Cc1cc(NC(=O)CSc2nc(-c3cccs3)cc(C(F)(F)F)n2)no1 | 0.264 µM
6 | O=C(Nc1ccccc1)N1CCC(c2nc(-c3ccc(S(=O)(=O)N4CCOCC4)cc3)no2)CC1 | > 40 µM (inactive)
7 | COc1ccc(C)c(Cn2c(-c3nonc3N)nc3ccccc32)c1 | 1.97 µM
8 | CCN(C)c1ccc(/C=N\n2nnnc2N)cc1 | 4.71 µM
9 | CCCNc1nc2c(c(=O)n(C)c(=O)n2C)n1Cc1cccc(C)c1 | 10.8 µM (inactive)
10 | Cc1cccc2cc3c(N)c(C(=O)N4CCOCC4)sc3nc12 | 0.95 µM
11 | O=C(Cc1cccs1)Nc1nc2c(s1)CCCC2 | > 40 µM (inactive)
12 | CC1=C(C(=O)OCc2ccc3c(c2)OCO3)C(c2ccccc2)NC(=O)N1 (stereo unspecified) | 17.3 µM (inactive)
13 | O=C(c1ccco1)N1CCN(C(=O)N2c3ccccc3Sc3ccccc32)CC1 | 0.099 µM
14 | COc1ccc(OC)c(Nc2cc(-c3ccccc3)nc(N)n2)c1 | 0.699 µM
15 | Cc1ccc(C)c2[nH]c(=O)c(CN(CCN3CCCC3)C(=O)Nc3cccc(Cl)c3)cc12 | > 40 µM (inactive)
16 | Cc1cc(NC(=O)CCCS(=O)(=O)c2nc(-c3cccs3)cc(C(F)(F)F)n2)no1 | 2 µM
17 | O=C(Nc1nc(-c2ccccn2)cs1)c1ccc(S(=O)(=O)N2CCCCC2)cc1 | 8.99 µM (inactive)
18 | COc1ccccc1NC(=O)Cc1nn(C)c(=O)c2ccccc12 | 3.35 µM
19 | NS(=O)(=O)c1ccc(CCNc2ncnc3sccc23)cc1 | 3.37 µM
20 | O=C(CCCc1nc(-c2ccc(Cl)cc2)no1)Nc1cccnc1 | 5.56 µM (inactive)
21 | COc1ccc(NC(=O)c2cnc(C)cn2)c2ncccc12 | 5.63 µM (inactive)
22 | Cn1nnnc1SCC(=O)Nc1ccc(Oc2ccc(Cl)cc2)cc1 | 36.8 µM (inactive)
23 | COc1ccccc1-n1cnc(N)c1C(=O)c1ccccc1 | > 4.4 µM (inactive)
24 | O=C(O)C1CC=CCC1C(=O)Nc1ccc(S(=O)(=O)N2CCCc3ccccc32)cc1 (stereo unspecified) | > 40 µM (inactive)
25 | CC(C)Oc1ccccc1C1CC(=O)Nc2cc3c(cc21)OCO3 (stereo unspecified) | 0.812 µM
26 | CCc1nnc(NC(=O)CSc2nnc(-c3ccccc3O)n2-c2ccc(C)cc2C)s1 | 4.43 µM

Row | Structure (SMILES) | CC50
27 | CCc1ccc2nc(NC(=O)c3cc(C)on3)sc2c1 | 3.71 µM
28 | C/C=C/COC(=O)c1[nH]c2c(c1C)C(=O)CC(c1ccco1)C2 (stereo unspecified) | 0.196 µM
29 | Cc1c(C(=O)OCC(C)C)[nH]c2c1C(=O)CC(c1ccco1)C2 (stereo unspecified) | 0.462 µM
30 | CN(C)c1ccccc1C(=O)c1ccccc1N(C)C | 0.743 µM
31 | CCOc1ccc2nc(N3CCC(C(=O)N4CCN(c5ccccn5)CC4)CC3)sc2c1 | 23.7 µM (inactive)
32 | Cc1cc(C(=O)CSc2nnc(NCc3ccccc3)s2)c(C)n1C | 12.9 µM (inactive)
33 | Cc1ccc(S(=O)(=O)Nc2cccc3ncccc23)s1 | 10.3 µM (inactive)
34 | Cc1cc(/C=N/n2cnnc2)c(C)n1-c1ccc(OCc2ccc(F)cc2)cc1 | > 13 µM (inactive)
35 | CC(=O)c1c(C)[nH]c(C(=O)OCCCCN2C(=O)c3ccccc3C2=O)c1C | > 40 µM (inactive)
36 | COC(=O)C1=C(N)Oc2cc(N(C)C)ccc2C1c1ccccc1OC (stereo unspecified) | 2.6 µM
37 | COc1ccc(CC(=O)Nc2cccc(-c3nnc(-c4cccc(C)c4)o3)c2)cc1OC | 7.1 µM (inactive)
38 | CCOc1cc(C(=O)N2CCc3cc(OC)c(OC)cc3C2)ccc1OC(F)F | 0.366 µM
39 | O=C(C1CC1)N1CCC(c2nc(-c3ccc(S(=O)(=O)NCC4CCCO4)cc3)no2)CC1 (stereo unspecified) | 9.95 µM (inactive)
40 | Cn1ncnc2c(=O)n(C)c(=O)nc1-2 | 2.06 µM
41 | O=c1oc2ccccc2cc1NCc1ccccc1O | > 40 µM (inactive)
42 | Cc1ccc(C(=O)CCNc2ccc(F)c(Cl)c2)o1 | 6.26 µM (inactive)
43 | N#CC1=C(N)Oc2cc(N)ccc2C1C1CC=CCC1 (stereo unspecified) | > 4.4 µM (inactive)
44 | CCOc1cccc(-n2nnnc2-c2ccc(OC)cc2)c1 | 1.06 µM
45 | CCCCOc1ncnc2c1[nH]c1ccccc12 | 5.71 µM (inactive)
46 | O=C(Nc1nc(-c2ccc3c(c2)OCO3)cs1)c1ccncc1 | > 40 µM (inactive)
47 | CCCCN(CC)S(=O)(=O)c1ccc(C(=O)Nc2nnc(-c3cccs3)o2)cc1 | 13.9 µM (inactive)
48 | COC(=O)c1[nH]c2c(c1C)C(=O)CC(c1cc(OC)ccc1OC)C2 (stereo unspecified) | 3.89 µM
49 | CCOC(=O)N1CCN(C(=O)c2cc(-c3ccc(OCC)cc3)nc3ccccc23)CC1 | 1.69 µM
50 | Cc1cc(C)n2nc(SCC(=O)c3cc(C)n(-c4cc(C)on4)c3C)nc2n1 | 29.4 µM (inactive)
51 | COc1ccc(-c2cc(N)n(S(=O)(=O)c3c(F)c(F)c(F)c(F)c3F)n2)cc1OC | 2.01 µM
52 | CCOC(=O)COc1cccc2c(=O)n(CC(=O)NCc3ccc4c(c3)OCO4)ccc12 | 5.51 µM (inactive)

Row | Structure (SMILES) | CC50
53 | Cc1cc(N2CCN(c3nc4ccccc4s3)CC2)n2ncnc2n1 | 8.41 µM (inactive)
54 | O=C(Nc1nccs1)c1ccc(S(=O)(=O)NCC2CCCCC2)cc1 | > 40 µM (inactive)
55 | O=C(Cn1cnc2sc(-c3ccccc3)cc2c1=O)NCc1ccco1 | 6 µM (inactive)
56 | CCCSc1nnc(Sc2nnnn2-c2ccccc2)s1 | 1.28 µM
57 | O=C(Nc1ccncc1)C1CCCN(S(=O)(=O)c2cccc3cccnc23)C1 (stereo unspecified) | 1.42 µM
58 | Cc1oc(-c2ccccc2Cl)nc1CSCC(=O)N1CCCC1 | > 40 µM (inactive)
59 | COc1ccc(C(=O)C(CN2CCOCC2)c2ccccc2)cc1F (stereo unspecified) | 5.09 µM (inactive)
60 | C=CCn1c(SCc2c(C)noc2C)nc2cc(C(=O)O)ccc2c1=O | 3.4 µM
61 | COc1cc(C(Nc2ccccn2)c2ccc3ccc(C)nc3c2O)cc(OC)c1O (stereo unspecified) | 6.78 µM (inactive)
62 | Oc1ccc(N=Cc2ccc(O)c(O)c2)cc1 | 25.9 µM (inactive)
63 | COCc1cc(CN2CCCC2)c(O)c2ncccc12 | > 13 µM (inactive)
64 | Cn1c(=O)n(C)c2cc(NS(=O)(=O)c3ccc4c(c3)CCCC4)ccc21 | 8.18 µM (inactive)
65 | COc1cccc(C2C=C(c3ccc(OC)cc3OC)Nc3nnnn32)c1 (stereo unspecified) | 18.4 µM (inactive)
66 | Cc1nn(Cc2c(Cl)cccc2Cl)c(C)c1NC(=O)c1cc(C(C)C)on1 | > 40 µM (inactive)
67 | COc1cc(C2=NOC(C(=O)NCc3ccco3)C2)cc(OC)c1OC (stereo unspecified) | 2.21 µM
68 | O=c1cc(-c2ccccc2)[nH]c2nc3ccccc3n12 | 9.38 µM (inactive)
69 | CCCN1CCN(c2ncnc3c2nnn3Cc2ccccc2)CC1 | 9.22 µM (inactive)
70 | Oc1ccc(Cl)cc1CNc1ccc(Br)cn1 | > 40 µM (inactive)
71 | CCOc1ccccc1NC(=O)Cn1nnc(C(=O)NCc2ccco2)c1N | 0.078 µM
72 | CCOC(=O)C1CCCN(C(=O)c2cc3c(-c4cccc(OC)c4)nn(C)c3s2)C1 (stereo unspecified) | 9.76 µM (inactive)
73 | CNc1nc2c(c(=O)n(C)c(=O)n2C)n1Cc1ccccc1 | 7.54 µM (inactive)
74 | O=C(NCc1cccnc1)NC1(C(F)(F)F)Oc2ccc(Cl)cc2O1 (stereo unspecified) | 8.08 µM (inactive)
75 | Cc1onc(-c2ccccc2)c1C(=O)Nc1sc2c(c1C#N)CCC2 | 15 µM (inactive)
76 | CCCCCCc1ccc(-c2ncc(N)cn2)cc1 | 28.5 µM (inactive)
